Source: patent US7829591B2, “Flavanone compound and uses thereof” (Pokka Corporation, priority 2003, dated 2010)

What was measured:
[1] = DPPH radical scavenging activity test; assay type: biochemical; conditions: for Radical Scavenging Activity (%) from DPPH Radical Scavenging Activity Test: 25 μM sample solution in ethanol, 1 h in dark, absorbance 517 nm, average ± SD of three runs
Description: DPPH (α,α-diphenyl-β-picrylhydradil) is a purple stable radical having a maximum absorption at 517 nm, which is converted into colorless hydrazine by gaining hydrogen. This color reaction was utilized so as to determine the radical scavenging activity of each of Compounds 1 to 4 and the like. That is, each of Compounds 1 to 4 was dissolved in ethanol to prepare 3 ml of a sample solution having a concentration of 25 μM. Thereafter, to each of the resultant sample solutions, 0.75 ml of a 0.5 mM DPPH solution (whose solvent was ethanol) was added and stirred, and reacted in a dark place for one hour, followed by the determination of an absorbance at 517 nm. Furthermore, in place of Compounds 1 to 4, BHT (butylated hydroxytoluene), α-tocopherol or eriodictyol was used so as to determine an absorbance according to a similar procedure to the above. Besides, instead of the above sample solutions, ethanol was used as a control so as to determine an absorbance according to a similar procedure to the above. Then the radical scavenging activity (%) of each of the materials was calculated using the following calculation formula 1. Incidentally, each of values shown in Table 1 is the average value and standard deviation of values obtained from three runs. (Radical Scavenging Activity)=[{(Absorbance of Control)−(Absorbance of Sample Solution)}/(Absorbance of Control)]×100 Calculation Formula 1

[2] = tested on: Staphylococcus aureus (Sta.); experiment: Antimicrobial activity test with Compounds 1 to 4; assay type: cell-based; conditions: for effect on growth and development of Gram-positive bacteria, Sta. (in words): 5-50 ppm
Description: (§1) That is, first of all, each of Compounds 1 to 4 was dissolved in 70% ethanol, and thereafter, standard agar media were prepared wherein the concentration of each of Compounds 1 to 4 was adjusted to be 0 ppm, 5 ppm, 10 ppm, 15 ppm, 20 ppm, or 50 ppm. Subsequently, these standard agar media were subjected to autoclave sterilization so as to prepare evaluation media, and each of the biological indicators was inoculated in each of these evaluation media. After the incubation of each of the bacteria, the number of the bacteria per a petri dish (CFU/petri dish) was determined.

Bacillus cereus (B. ce) = experiment: Antimicrobial activity test with Compounds 1 to 4; assay type: cell-based; conditions: for effect on growth and development of spore forming bacteria, B. ce (in words): 5-50 ppm
Description: as §1

[3] = tested on: Salmonella enteritidis (S. en; NBRC3313); experiment: Antimicrobial activity test with Compounds 1 to 4; assay type: cell-based; conditions: for effect on growth and development of S. en (in words): 5-50 ppm
Description: as §1

E. coli = experiment: Antimicrobial activity test with Compounds 1 to 4; assay type: cell-based; conditions: for effect on growth and development of E. coli (in words): 5-50 ppm
Description: as §1

β-carotene fading test = assay type: biochemical; conditions: for Antioxidant Activity (%) from β-carotene Fading Test: 20 μM in reaction liquid, 60° C. for 60 minutes, absorbance 470 nm, average ± SD of three runs; for antioxidant activity (in words): comparison from Table 1
Description: β-carotene will fade due to the reaction of linoleic acid peroxide, which is produced by the autoxidation of linoleic acid, with a double bond in β-carotene. This phenomenon was utilized so as to determine the antioxidant activity of each of Compounds 1 to 4 and the like. That is, first of all, 2 ml of a 200 mg/ml solution of Tween-40 in chloroform, 0.4 ml of a 100 mg/ml solution of linoleic acid in chloroform, and 3 ml of a 0.1 mg/ml solution of β-carotene in chloroform were mixed, and thereafter the solvent was removed by using a nitrogen gas. Subsequently, 100 ml of distilled water was added thereto, and adequately stirred to obtain an emulsion. To 3 ml of this emulsion, ethanol was added to completely dissolve the solute in the solvent. Thereafter, each of Compounds 1 to 4 was dissolved in ethanol so as to prepare a sample solution having a concentration of 1.2 mM. 50 μl of the sample solution was mixed with the above emulsion wherein the solute had been completely dissolved so as to prepare a reaction liquid (or a sample reaction liquid). Then the concentration of each of Compounds 1 to 4 in the reaction liquid was 20 μM. The reaction liquid was incubated at 60° C. for 60 minutes. Then the absorbance of each of the reaction liquid before the incubation and the reaction liquid after the incubation was determined at 470 nm. Furthermore, BHT, α-tocopherol, or eriodictyol was used in place of Compounds 1 to 4 so as to determine the absorbance of the reaction liquid before and after incubation according to a similar procedure to the above-mentioned one. In addition, as a control, a reaction liquid (or a control reaction liquid) wherein no sample solution was contained was prepared so as to determine the absorbance of the reaction liquid before and after incubation according to a similar procedure to the above-mentioned one. The antioxidant activity (%) of each of the materials was calculated using the following calculation formula 2. Incidentally, each of values shown in Table 1 is the average value and standard deviation of values obtained from three runs. (Antioxidant Activity)=[{(Fading Rate of Control)−(Fading Rate of Sample Solution)}/(Fading Rate of Control)]×100 Calculation Formula 2
It should be noted that in the calculation formula 2, “Fading Rate of Control” is the natural logarithm of a value which is acquired by dividing the absorbance of the control reaction liquid before incubation by the absorbance of the control reaction liquid after incubation and further by dividing the resultant value by 60; and “Fading Rate of Sample Solution” is the natural logarithm of a value which is acquired by dividing the absorbance of the sample reaction liquid before incubation by the absorbance of the sample reaction liquid after incubation and further by dividing the resultant value by 60.

[4] = 5 ppm in standard agar medium, 0 ppm: 470 (Table 3), 202 (Table 4)
[5] = 5 ppm in standard agar medium, 0 ppm: 13 (Table 3), 183 (Table 4)
[6] = 5 ppm in standard agar medium, 0 ppm: >3000 (Table 3), 221 (Table 4)
[7] = 5 ppm in standard agar medium, 0 ppm: >3000 (Table 3), 5 (Table 4)

Compound | Radical Scavenging Activity (%) from DPPH Radical Scavenging Activity Test [1] | effect on growth and development of Gram-positive bacteria, Sta. (in words) [2] | Number of Bacteria, Sta. [2, 4] | Number of Bacteria, Sta. ([2]; 10 ppm in standard agar medium) | Number of Bacteria, Sta. ([2]; 15 ppm in standard agar medium) | Number of Bacteria, Sta. ([2]; 20 ppm in standard agar medium) | Number of Bacteria, Sta. ([2]; 50 ppm in standard agar medium) | effect on growth and development of spore forming bacteria, B. ce (in words) (Bacillus cereus (B. ce)) | Number of Bacteria, B. ce (Bacillus cereus (B. ce); [5]) | Number of Bacteria, B. ce (Bacillus cereus (B. ce); 10 ppm in standard agar medium) | Number of Bacteria, B. ce (Bacillus cereus (B. ce); 15 ppm in standard agar medium) | Number of Bacteria, B. ce (Bacillus cereus (B. ce); 20 ppm in standard agar medium) | Number of Bacteria, B. ce (Bacillus cereus (B. ce); 50 ppm in standard agar medium) | effect on growth and development of S. en (in words) [3] | Number of Bacteria, S. en [3, 6] | Number of Bacteria, S. en ([3]; 10 ppm in standard agar medium) | Number of Bacteria, S. en ([3]; 15 ppm in standard agar medium) | Number of Bacteria, S. en ([3]; 20 ppm in standard agar medium) | Number of Bacteria, S. en ([3]; 50 ppm in standard agar medium) | effect on growth and development of E. coli (in words) (E. coli) | further results
CC(C)=CCC/C(C)=C/Cc1c([C@@H]2CC(=O)c3c(cc(O)c(CC=C(C)C)c3O)O2)ccc(O)c1O [Compound 4, 5,7,3′,4′-tetrahydroxy-6-(3′″,3′″-dimethylallyl)-2′-C-geranylflavanone] | 50.79 ± 0.08% | high antimicrobial activity | 26 CFU/petri dish | 7 CFU/petri dish | 10 CFU/petri dish | 1 CFU/petri dish | 0 CFU/petri dish | high antimicrobial activity | 16 CFU/petri dish | 0 CFU/petri dish | 0 CFU/petri dish | 0 CFU/petri dish | 0 CFU/petri dish | antimicrobial activity | 249 CFU/petri dish | 199 CFU/petri dish | 225 CFU/petri dish | 132 CFU/petri dish | 65 CFU/petri dish | high antimicrobial activity | Number of Bacteria, E. coli (E. coli; [7]): 6 CFU/petri dish; Number of Bacteria, E. coli (E. coli; 10 ppm in standard agar medium): 6 CFU/petri dish; Number of Bacteria, E. coli (E. coli; 15 ppm in standard agar medium): 9 CFU/petri dish; Number of Bacteria, E. coli (E. coli; 20 ppm in standard agar medium): 6 CFU/petri dish; Number of Bacteria, E. coli (E. coli; 50 ppm in standard agar medium): 0 CFU/petri dish; Antioxidant Activity (%) from β-carotene Fading Test (β-carotene fading test): 80.06 ± 0.29%; antioxidant activity (in words) (β-carotene fading test): about the same high antioxidant activity as that of each of BHT, α-tocopherol, and eriodictyol
CC(C)=CCC/C(C)=C/Cc1c(O)cc2c(c1O)C(=O)C[C@@H](c1ccc(O)c(O)c1)O2 [Compound 3, 5,7,3′,4′-tetrahydroxy-6-C-geranylflavanone] | 64.00 ± 0.58% | high antimicrobial activity | 22 CFU/petri dish | 0 CFU/petri dish | 0 CFU/petri dish | 0 CFU/petri dish | 0 CFU/petri dish | high antimicrobial activity | 4 CFU/petri dish | 0 CFU/petri dish | 0 CFU/petri dish | 0 CFU/petri dish | 0 CFU/petri dish | antimicrobial activity | 296 CFU/petri dish | 207 CFU/petri dish | 116 CFU/petri dish | 143 CFU/petri dish | 43 CFU/petri dish | high antimicrobial activity | radical scavenging activity (in words) ([1]; comparison from Table 1): highest radical scavenging activity; Number of Bacteria, E. coli (E. coli; [7]): 3 CFU/petri dish; Number of Bacteria, E. coli (E. coli; 10 ppm in standard agar medium): 1 CFU/petri dish; Number of Bacteria, E. coli (E. coli; 15 ppm in standard agar medium): 0 CFU/petri dish; Number of Bacteria, E. coli (E. coli; 20 ppm in standard agar medium): 0 CFU/petri dish; Number of Bacteria, E. coli (E. coli; 50 ppm in standard agar medium): 0 CFU/petri dish; Antioxidant Activity (%) from β-carotene Fading Test (β-carotene fading test): 60.62 ± 1.16%
CC(C)=CCC/C(C)=C/Cc1c([C@@H]2CC(=O)c3c(O)cc(O)cc3O2)ccc(O)c1O [Compound 1, 5,7,3′,4′-tetrahydroxy-2′-C-geranylflavanone] | 55.35 ± 0.43% | more strongly the growth and development of each of Gram-5 positive bacteria and spore forming bacteria is inhibited | 344 CFU/petri dish | 36 CFU/petri dish | 0 CFU/petri dish | 0 CFU/petri dish | 0 CFU/petri dish | more strongly the growth and development of each of Gram-5 positive bacteria and spore forming bacteria is inhibited | 12 CFU/petri dish | 0 CFU/petri dish | 0 CFU/petri dish | 0 CFU/petri dish | 0 CFU/petri dish | little effect upon the growth and development | >3000 CFU/petri dish | >3000 CFU/petri dish | >3000 CFU/petri dish | >3000 CFU/petri dish | >3000 CFU/petri dish | little effect upon the growth and development | Number of Bacteria, E. coli (E. coli; [7]): >3000 CFU/petri dish; Number of Bacteria, E. coli (E. coli; 10 ppm in standard agar medium): >3000 CFU/petri dish; Number of Bacteria, E. coli (E. coli; 15 ppm in standard agar medium): >3000 CFU/petri dish; Number of Bacteria, E. coli (E. coli; 20 ppm in standard agar medium): >3000 CFU/petri dish; Number of Bacteria, E. coli (E. coli; 50 ppm in standard agar medium): >3000 CFU/petri dish; Antioxidant Activity (%) from β-carotene Fading Test (β-carotene fading test): 85.54 ± 2.24%; antioxidant activity (in words) (β-carotene fading test): about the same high antioxidant activity as that of each of BHT, α-tocopherol, and eriodictyol
